Test results from ChEMBL document CHEMBL3045401, “(Naphthalen-1-yloxy)-acetic acid benzylidene/(1-phenyl-ethylidene)-hydrazide derivatives: synthesis, antimicrobial evaluation, and QSAR studies” (Med Chem Res, 2012).
Values after ≈ are worked out from the molar mass of the structure shown.

Legend:
[1] = Octanol-water partition coefficient, log P of the compound; assay type: physicochemical
Aspergillus niger = test: Antimicrobial activity against Aspergillus niger after 7 days by serial dilution method; assay type: functional
Candida albicans = test: Antimicrobial activity against Candida albicans after 2 days by serial dilution method; assay type: functional
Escherichia coli = test: Antimicrobial activity against Escherichia coli after 24 hr by serial dilution method; assay type: functional
Staphylococcus aureus = test: Antimicrobial activity against Staphylococcus aureus after 24 hr by serial dilution method; assay type: functional
Bacillus subtilis = test: Antimicrobial activity against Bacillus subtilis after 24 hr by serial dilution method; assay type: functional
[2] = Cytotoxicity against HEL assessed as minimum concentration required to cause morphological changes; assay type: cell-based; settings: human, HEL cells
Human betaherpesvirus 5 [3] = test: Antiviral activity against Human herpesvirus 5 Davis infected human HEL cells assessed as reduction in the virus plaque formation; assay type: functional, organism-based; settings: Human betaherpesvirus 5, Davis
Human betaherpesvirus 5 [4] = test: Antiviral activity against Human herpesvirus 5 strain AD169 infected human HEL cells assessed as reduction in the virus plaque formation; assay type: functional, organism-based; settings: Human betaherpesvirus 5, AD169, HEL
[5] = Cytotoxicity against HEL; assay type: cell-based; settings: human, HEL cells
Human alphaherpesvirus 3 [6] = test: Antiviral activity against thymidine kinase-deficient Human herpesvirus 3 infected in HEL cells assessed as inhibition of viral plaque formation; assay type: functional, organism-based; settings: Human alphaherpesvirus 3, HEL
Human alphaherpesvirus 3 [7] = test: Antiviral activity against thymidine kinase-positive Human herpesvirus 3 infected in HEL cells assessed as inhibition of viral plaque formation; assay type: functional, organism-based; settings: Human alphaherpesvirus 3, HEL
[8] = Cytotoxicity against Homo sapiens (human) MT4 cells after 4 days by MTT assay; assay type: cell-based
[9] = system: Human immunodeficiency virus 2; test: Antiviral activity against Human immunodeficiency virus type 2 (ISOLATE ROD) infected human MT4 cells assessed as inhibition of virus-induced cytopathic effect after 4 days by MTT assay; assay type: functional, organism-based; settings: Human immunodeficiency virus 2, ISOLATE ROD, MT4, 96 h
[10] = system: Human immunodeficiency virus 1; test: Antiviral activity against Human immunodeficiency virus 1 IIIB infected human MT4 cells assessed as inhibition of virus-induced cytopathic effect after 4 days by MTT assay; assay type: functional, organism-based; settings: MT4, 96 h

Structure (SMILES)	logP [1]	-logMIC (Aspergillus niger)	-logMIC (Candida albicans)	-logMIC (Escherichia coli)	-logMIC (Staphylococcus aureus)	-logMIC (Bacillus subtilis)	MCC [2]	EC50 (Human betaherpesvirus 5 [3])	EC50 (Human betaherpesvirus 5 [4])	CC50 [5]	EC50 (Human alphaherpesvirus 3 [6])	EC50 (Human alphaherpesvirus 3 [7])	CC50 at 96 h [8]	EC50 [9]	EC50 [10]
O=C(COc1cccc2ccccc12)N/N=C/C=C/c1ccccc1	4.43	0.82	1.72	1.12	1.12	1.12	100 µg/mL	> 20 µg/mL	> 20 µg/mL	100 µg/mL (≈ 303 µM)	> 20 µg/mL	> 20 µg/mL	82.7 µg/mL (≈ 250 µM)	> 62.7 µg/mL	> 62.7 µg/mL
O=C(COc1cccc2ccccc12)N/N=C/c1c(O)ccc2ccccc12	4.74	0.87	0.87	0.87	0.87	0.57	4 µg/mL	> 0.8 µg/mL	> 0.8 µg/mL	1.94 µg/mL (≈ 5.24 µM)	> 0.8 µg/mL	> 0.8 µg/mL	2.12 µg/mL (≈ 5.72 µM)	> 2.12 µg/mL	> 2.12 µg/mL
O=C(COc1cccc2ccccc12)N/N=C/c1c[nH]c2ccccc12	3.79	0.84	0.84	0.84	0.84	1.14	100 µg/mL	> 20 µg/mL	> 20 µg/mL	> 100 µg/mL	> 20 µg/mL	> 20 µg/mL	51.5 µg/mL (≈ 150 µM)	> 51.5 µg/mL	> 51.5 µg/mL
C/C(=N\NC(=O)COc1cccc2ccccc12)c1ccccc1	3.65	0.82	0.82	0.82	0.82	0.82	20 µg/mL	> 4 µg/mL	> 4 µg/mL	20 µg/mL (≈ 62.8 µM)	> 20 µg/mL	> 20 µg/mL	105 µg/mL (≈ 328 µM)	> 105 µg/mL	> 105 µg/mL
C/C(=N\NC(=O)COc1cccc2ccccc12)c1ccc(Cl)cc1	4.17	0.85	1.75	1.15	1.45	1.15	≥ 4 µg/mL	4 µg/mL (≈ 11.3 µM)	> 0.8 µg/mL	7.1 µg/mL (≈ 20.1 µM)	3.24 µg/mL (≈ 9.18 µM)	2.5 µg/mL (≈ 7.09 µM)	4.07 µg/mL (≈ 11.5 µM)	> 4.07 µg/mL	> 4.07 µg/mL
C/C(=N\NC(=O)COc1cccc2ccccc12)c1ccccc1Br	4.44	1.5	1.5	1.2	1.2	1.2	20 µg/mL	> 4 µg/mL	> 4 µg/mL	16.2 µg/mL (≈ 40.8 µM)	> 4 µg/mL	> 4 µg/mL	79.8 µg/mL (≈ 201 µM)	> 79.8 µg/mL	> 79.8 µg/mL
C/C(=N\NC(=O)COc1cccc2ccccc12)c1ccc(Br)cc1	3.61	0.6	0.6	0.6	0.6	0.9	20 µg/mL	> 4 µg/mL	> 4 µg/mL	15.3 µg/mL (≈ 38.5 µM)	> 4 µg/mL	> 4 µg/mL	77.6 µg/mL (≈ 195 µM)	> 77.6 µg/mL	> 77.6 µg/mL
C/C(=N\NC(=O)COc1cccc2ccccc12)c1ccc(C#N)cc1Br	3.61	1.53	2.13	1.53	1.23	1.23	20 µg/mL	> 4 µg/mL	> 4 µg/mL	12.7 µg/mL (≈ 30.1 µM)	> 4 µg/mL	> 4 µg/mL	12.1 µg/mL (≈ 28.7 µM)	> 12.1 µg/mL	> 12.1 µg/mL
C/C(=N\NC(=O)COc1cccc2ccccc12)c1cccc([N+](=O)[O-])c1	3.37	1.46	1.76	1.46	1.76	1.16	20 µg/mL	> 4 µg/mL	> 4 µg/mL	10.5 µg/mL (≈ 28.9 µM)	> 4 µg/mL	> 4 µg/mL	12.1 µg/mL (≈ 33.2 µM)	> 12.1 µg/mL	> 12.1 µg/mL
C/C(=N\NC(=O)COc1cccc2ccccc12)c1ccc([N+](=O)[O-])cc1	3.37	0.86	1.46	1.46	1.16	1.16	100 µg/mL	> 20 µg/mL	> 20 µg/mL	> 100 µg/mL	> 20 µg/mL	> 20 µg/mL	89.3 µg/mL (≈ 246 µM)	> 89.3 µg/mL	> 89.3 µg/mL
C/C(=N\NC(=O)COc1cccc2ccccc12)c1ccccc1O	3.08	0.82	0.82	1.43	1.13	0.82	20 µg/mL	> 4 µg/mL	> 4 µg/mL	4 µg/mL (≈ 12 µM)	7.9 µg/mL (≈ 23.6 µM)	7 µg/mL (≈ 20.9 µM)	11.2 µg/mL (≈ 33.6 µM)	> 11.2 µg/mL	> 11.2 µg/mL
C/C(=N\NC(=O)COc1cccc2ccccc12)c1ccc(O)cc1	4.44	1.43	1.43	1.43	1.13	1.13	20 µg/mL	> 4 µg/mL	> 4 µg/mL	11.1 µg/mL (≈ 33.2 µM)	> 0.8 µg/mL	> 4 µg/mL	68.8 µg/mL (≈ 206 µM)	> 68.8 µg/mL	> 68.8 µg/mL
C/C(=N\NC(=O)COc1cccc2ccccc12)c1ccc(O)cc1O	4.31	1.45	1.45	1.75	1.15	1.15	> 100 µg/mL	> 100 µg/mL	> 100 µg/mL	74.8 µg/mL (≈ 213 µM)	> 100 µg/mL	58.5 µg/mL (≈ 167 µM)	59.9 µg/mL (≈ 171 µM)	> 59.9 µg/mL	> 59.9 µg/mL
CCOc1ccc(/C=N/NC(=O)COc2cccc3ccccc23)cc1O	3.82	1.46	1.46	1.46	1.16	1.46	100 µg/mL	> 20 µg/mL	> 20 µg/mL	18.1 µg/mL (≈ 49.7 µM)	> 4 µg/mL	> 4 µg/mL	6.23 µg/mL (≈ 17.1 µM)	> 6.23 µg/mL	> 6.23 µg/mL
COc1cc(/C=N/NC(=O)COc2cccc3ccccc23)cc(OC)c1O	3.23	1.48	1.78	1.48	1.18	1.48	100 µg/mL	> 20 µg/mL	> 20 µg/mL	52.8 µg/mL (≈ 139 µM)	> 20 µg/mL	16.9 µg/mL (≈ 44.4 µM)	16.3 µg/mL (≈ 42.8 µM)	> 16.3 µg/mL	> 16.3 µg/mL
CSc1ccc(/C=N/NC(=O)COc2cccc3ccccc23)cc1	4.11	0.54	1.45	0.85	0.85	0.85	≥ 100 µg/mL	> 20 µg/mL	> 20 µg/mL	> 100 µg/mL	> 20 µg/mL	> 20 µg/mL	68.3 µg/mL (≈ 195 µM)	> 68.3 µg/mL	> 68.3 µg/mL
Cc1ccc(/C=N/NC(=O)COc2cccc3ccccc23)cc1	4.49	0.82	0.52	0.52	1.12	0.52	20 µg/mL	> 4 µg/mL	> 4 µg/mL	80.1 µg/mL (≈ 252 µM)	> 20 µg/mL	> 20 µg/mL	83.9 µg/mL (≈ 263 µM)	> 83.9 µg/mL	> 83.9 µg/mL
NNC(=O)COc1ccc2ccccc2c1 [2-NAPHTHOXY ACETIC ACID HYDRAZIDE]	–	0.64	0.64	0.94	0.94	0.64	–	–	–	–	–	–	–	–	–
Nc1nc2c(ncn2COCCO)c(=O)[nH]1 [ACYCLOVIR]	–	–	–	–	–	–	> 100 µg/mL	–	–	120 µg/mL (≈ 533 µM)	23 µg/mL (≈ 102 µM)	0.44 µg/mL (≈ 1.95 µM)	–	–	–
O=c1[nH]c(=O)n([C@H]2C[C@H](O)[C@@H](CO)O2)cc1/C=C/Br [BRIVUDINE]	–	–	–	–	–	–	> 100 µg/mL	–	–	173 µg/mL (≈ 519 µM)	20 µg/mL (≈ 60 µM)	0.0093 µg/mL (≈ 0.0279 µM)	–	–	–
Nc1ccn(C[C@@H](CO)OCP(=O)(O)O)c(=O)n1.O.O [CIDOFOVIR]	–	–	–	–	–	–	> 100 µg/mL	0.3 µg/mL	0.8 µg/mL	35.4 µg/mL	–	–	–	–	–
OC(Cn1cncn1)(Cn1cncn1)c1ccc(F)cc1F [FLUCONAZOLE]	–	2.64	2.64	–	–	–	–	–	–	–	–	–	–	–	–
Nc1nc2c(ncn2COC(CO)CO)c(=O)[nH]1 [GANCICLOVIR]	–	–	–	–	–	–	> 100 µg/mL	1.79 µg/mL (≈ 7.01 µM)	2.68 µg/mL (≈ 10.5 µM)	60.5 µg/mL (≈ 237 µM)	–	–	–	–	–
Cc1ccnc2c1NC(=O)c1cccnc1N2C1CC1 [NEVIRAPINE]	–	–	–	–	–	–	–	–	–	–	–	–	> 4 µg/mL	> 4 µg/mL	–
CCn1cc(C(=O)O)c(=O)c2cc(F)c(N3CCNCC3)cc21 [NORFLOXACIN]	–	–	–	2.61	2.61	2.61	–	–	–	–	–	–	–	–	–
Cc1cn([C@H]2C[C@H](N=[N+]=[N-])[C@@H](CO)O2)c(=O)[nH]c1=O [ZIDOVUDINE]	–	–	–	–	–	–	–	–	–	–	–	–	> 25 µg/mL	–	0.002 µg/mL (≈ 0.00748 µM)
